One experiment has as its system Plasmopara viticola. Kind of experiment: Grape vine downy mildew (VDM) control test. The experiment is classed as in vivo. The note with it: Table 9: monosaccharide 10% liquid preparation, no assistant, 10-fold dilution (monosaccharide 1%).
Consider `O=C[C@@H](O)[C@@H](O)[C@@H](O)[C@H](O)CO` [D-talose], for which the “preventive value VDM” value is given as “(0)”.

A further experiment relates to Sphaerotheca cucurbitae. Nature of the experiment: Cucumber powdery mildew (CPM) control test. Format: in vivo. The note with it: Table 9: monosaccharide 10% liquid preparation, no assistant, 10-fold dilution (monosaccharide 1%).
Consider D-mannose, for which the “preventive value CPM” value is on record as “(33)”.

As to `O=C[C@@H](O)[C@@H](O)[C@@H](O)[C@H](O)CO` [D-talose], the “preventive value CPM” value is recorded as “(17)”.

In another experiment the test system is Botrytis cinerea. Kind of experiment: Tomato gray mold (GM) control test. Format: in vivo. The note with it: Table 9: monosaccharide 10% liquid preparation, no assistant, 10-fold dilution (monosaccharide 1%). On the procedure: (GM: Gray Mold) Test plants (tomato variety: Oogata Fukuju) were planted followed by cultivating until three first leaves appeared. In the test, dilutions (5 ml/pot) obtained by diluting with distilled water so that each formula reached a prescribed concentration were sprayed. After inoculating the seedlings one day after spraying by spraying with 1×10^7 organisms/ml of conidia of Botrytis cinerea, the seedlings were allowed to stand for about 48 hours in an inoculation room at a room temperature of 20° C. to 23° C. to promote the onset of disease. Disease development was investigated 2 days after inoculation, and the effects thereof were evaluated. Disease development was evaluated using the following indicators for disease control tests evaluated according to the methods described above. Furthermore, preventive values were calculated based on the disease development.
Regarding D-mannose, the “preventive value GM” value is listed as “(16)”.

The test system of a further experiment is Magnaporthe grisea.
Experiment: not given
Format: in vivo. The note with it: Table 9: monosaccharide 10% liquid preparation, no assistant, 10-fold dilution (monosaccharide 1%).
For D-mannose, the “preventive value B” value is reported as “(17)”.

For `O=C[C@@H](O)[C@@H](O)[C@@H](O)[C@H](O)CO` [D-talose], the “preventive value B” value was “(50)”.

In a further experiment the test system is Pseudoperonospora cubensis. Kind of experiment: Cucumber downy mildew (CDM) control test. Format: in vivo. The conditions noted are these: Table 8: D-tagatose liquid preparation with assistant (5 parts), 10-fold dilution (D-tagatose 0.5%+assistant 0.5%); improvement vs D-tagatose only.
For the compound `C[C@H](O)[C@H](O)[C@@H](O)[C@@H](O)C=O` [L-rhamnose], the “Evaluation Score CDM” value is 2 (Improvement in preventive value of 10 to less than 20).

For `O=C(O)CC(=O)O` [Malonic acid], the “Evaluation Score CDM” value amounted to 0.

For Lactose, the “Evaluation Score CDM” value was 1 (Improvement in preventive value of 1 to less than 10).

`O=C[C@H](O)[C@H](O)[C@H](O)CO` [D-ribose]: the “Evaluation Score CDM” value is reported as 2 (Improvement in preventive value of 10 to less than 20).

`OC[C@@H](O)[C@@H](O)[C@H](O)[C@@H](O)CO` [D-sorbitol]: the “Evaluation Score CDM” value was 1 (Improvement in preventive value of 1 to less than 10).

As to `C[C@@H](O)[C@H](O)[C@H](O)[C@@H](O)C=O` [D-fucose], the “Evaluation Score CDM” value is recorded as 2 (Improvement in preventive value of 10 to less than 20).

Turning to `NC(=O)C[C@H](N)C(=O)O` [L-asparagine], the “Evaluation Score CDM” value was 1 (Improvement in preventive value of 1 to less than 10).

`OC[C@H]1O[C@@](CO)(O[C@H]2O[C@H](CO)[C@@H](O)[C@H](O)[C@H]2O)[C@@H](O)[C@@H]1O` [Sucrose]: the “Evaluation Score CDM” value is listed as 1 (Improvement in preventive value of 1 to less than 10).

With `Nc1ncnc2[nH]cnc12` [Adenine], the “Evaluation Score CDM” value worked out at 0.

On to `O=c1ccn([C@@H]2O[C@H](CO)[C@@H](O)[C@H]2O)c(=O)[nH]1` [Uridine], for which the “Evaluation Score CDM” value stood at 0.

As for `O=C(O)[C@@H]1CCCN1` [L-proline], the “Evaluation Score CDM” value was 1 (Improvement in preventive value of 1 to less than 10).

As for `OC[C@@H](O)[C@H](O)[C@@H](O)CO` [Xylitol], the “Evaluation Score CDM” value is on record as 2 (Improvement in preventive value of 10 to less than 20).

Consider `C[C@@H](O)[C@H](N)C(=O)O` [L-threonine], for which the “Evaluation Score CDM” value is 1 (Improvement in preventive value of 1 to less than 10).

On to `OC[C@H]1OC(O)[C@@H](O)[C@H](O)[C@@H]1O` (stereo partly drawn) [D-altrose], for which the “Evaluation Score CDM” value is on record as 4 (Improvement in preventive value of 30 to less than 40).

For `Nc1ncnc2c1ncn2[C@@H]1O[C@H](CO)[C@@H](O)[C@H]1O` [Adenosine], the “Evaluation Score CDM” value is reported as 0.

On to Stachyose, for which the “Evaluation Score CDM” value was 1 (Improvement in preventive value of 1 to less than 10).

In the case of L-alanine, the “Evaluation Score CDM” value is listed as 2 (Improvement in preventive value of 10 to less than 20).

Consider `Nc1ccn([C@@H]2O[C@H](CO)[C@@H](O)[C@H]2O)c(=O)n1` [Cytidine], for which the “Evaluation Score CDM” value is 1 (Improvement in preventive value of 1 to less than 10).

Turning to `N[C@@H](CO)C(=O)O` [L-serine], the “Evaluation Score CDM” value is on record as 1 (Improvement in preventive value of 1 to less than 10).

As for `O=C(CO)[C@@H](O)[C@H](O)[C@H](O)CO` [D-fructose], the “Evaluation Score CDM” value is 2 (Improvement in preventive value of 10 to less than 20).

In the case of `N[C@@H](CS)C(=O)O` [L-cysteine], the “Evaluation Score CDM” value was 3 (Improvement in preventive value of 20 to less than 30).

For the compound `OC[C@H]1O[C@H](O[C@H]2[C@H](O)[C@@H](O)C(O)O[C@@H]2CO)[C@H](O)[C@@H](O)[C@@H]1O` (mixture of isomers) [Maltose], the “Evaluation Score CDM” value is 1 (Improvement in preventive value of 1 to less than 10).

Consider `C[C@@H]1OC(O)[C@@H](O)[C@H](O)[C@@H]1O` (stereo partly drawn) [L-fucose], for which the “Evaluation Score CDM” value was 2 (Improvement in preventive value of 10 to less than 20).

As for D-glucose, the “Evaluation Score CDM” value was 1 (Improvement in preventive value of 1 to less than 10).

As for `O=C1O[C@H](CO)[C@@H](O)[C@H](O)[C@H]1O` [D-gluconolactone], the “Evaluation Score CDM” value is 2 (Improvement in preventive value of 10 to less than 20).

Take `CC(=O)O` [Acetic acid]: the “Evaluation Score CDM” value is recorded as 1 (Improvement in preventive value of 1 to less than 10).

In the case of `OC[C@@H](O)[C@@H](O)[C@@H](O)[C@@H](O)CO` [Allitol], the “Evaluation Score CDM” value is reported as 2 (Improvement in preventive value of 10 to less than 20).

Consider `O=C[C@H](O)[C@@H](O)[C@H](O)[C@H](O)C(=O)[O-].[Na+]` [Sodium D-glucuronate], for which the “Evaluation Score CDM” value is 1 (Improvement in preventive value of 1 to less than 10).

For the compound `O=C[C@H](O)[C@@H](O)[C@@H](O)[C@H](O)C(=O)O` [D-galacturonic acid], the “Evaluation Score CDM” value was 3 (Improvement in preventive value of 20 to less than 30).

In the case of `O=C[C@@H](O)[C@H](O)[C@H](O)CO` [D-arabinose], the “Evaluation Score CDM” value is 1 (Improvement in preventive value of 1 to less than 10).

`OC[C@H]1O[C@H](OC[C@H]2O[C@H](O[C@]3(CO)O[C@H](CO)[C@@H](O)[C@@H]3O)[C@H](O)[C@@H](O)[C@@H]2O)[C@H](O)[C@@H](O)[C@H]1O` [Raffinose]: the “Evaluation Score CDM” value is 4 (Improvement in preventive value of 30 to less than 40).

`CSCC[C@H](N)C(=O)O` [L-methionine]: the “Evaluation Score CDM” value is 2 (Improvement in preventive value of 10 to less than 20).

Take `OC[C@H]1O[C@H](O[C@H]2O[C@H](CO)[C@@H](O)[C@H](O)[C@H]2O)[C@H](O)[C@@H](O)[C@@H]1O` [Trehalose]: the “Evaluation Score CDM” value is given as 3 (Improvement in preventive value of 20 to less than 30).

In the case of `Nc1cc[nH]c(=O)n1` [Cytosine], the “Evaluation Score CDM” value came out at 0.

Regarding `C[N+](C)(C)CC(O)CC(=O)[O-]` (racemic) [DL-carnitine], the “Evaluation Score CDM” value is listed as 2 (Improvement in preventive value of 10 to less than 20).

For the compound `NC(=O)CC[C@H](N)C(=O)O` [L-glutamine], the “Evaluation Score CDM” value is 1 (Improvement in preventive value of 1 to less than 10).

As to L-leucine, the “Evaluation Score CDM” value was 3 (Improvement in preventive value of 20 to less than 30).

In the case of `N[C@@H](Cc1c[nH]cn1)C(=O)O` [L-histidine], the “Evaluation Score CDM” value is reported as 3 (Improvement in preventive value of 20 to less than 30).

As for `O=CC[C@H](O)[C@H](O)CO` [Formula 2-deoxy-D-ribose, 2-deoxy-D-ribose], the “Evaluation Score CDM” value is recorded as 4 (Improvement in preventive value of 30 to less than 40).

In the case of `O=C(CO)[C@@H](O)[C@H](O[C@H]1O[C@H](CO)[C@@H](O)[C@H](O)[C@H]1O)[C@H](O)CO` [Maltulose], the “Evaluation Score CDM” value was 1 (Improvement in preventive value of 1 to less than 10).

In the case of `N[C@@H](Cc1ccccc1)C(=O)O` [L-phenylalanine], the “Evaluation Score CDM” value was 3 (Improvement in preventive value of 20 to less than 30).

In the case of `CC[C@H](C)[C@H](N)C(=O)O` [L-isoleucine], the “Evaluation Score CDM” value is 1 (Improvement in preventive value of 1 to less than 10).

Take `O=C(CO)[C@@H](O)[C@H](O)CO` [D-xylulose]: the “Evaluation Score CDM” value is 1 (Improvement in preventive value of 1 to less than 10).

Regarding `O=C[C@H](O)[C@@H](O)[C@H](O[C@@H]1O[C@H](CO)[C@@H](O)[C@H](O)[C@H]1O)[C@H](O)CO` [Cellobiose], the “Evaluation Score CDM” value was 1 (Improvement in preventive value of 1 to less than 10).

Regarding `CC(O)C(=O)O` (centres unmarked) [Lactic acid], the “Evaluation Score CDM” value was 0.

For the compound `O=c1cc[nH]c(=O)[nH]1` [Uracil], the “Evaluation Score CDM” value was 1 (Improvement in preventive value of 1 to less than 10).

In the case of `O=C[C@H](O)[C@@H](O)[C@H](O)CO` [D-xylose], the “Evaluation Score CDM” value is on record as 1 (Improvement in preventive value of 1 to less than 10).

As to D-mannose, the “Evaluation Score CDM” value is listed as 2 (Improvement in preventive value of 10 to less than 20).

In the case of L-valine, the “Evaluation Score CDM” value is 3 (Improvement in preventive value of 20 to less than 30).

For `O=C[C@@H](O)[C@@H](O)[C@@H](O)[C@H](O)CO` [D-talose], the “Evaluation Score CDM” value was 2 (Improvement in preventive value of 10 to less than 20).

Take `O=C[C@H](O)CO` [D-glyceraldehyde]: the “Evaluation Score CDM” value was 4 (Improvement in preventive value of 30 to less than 40).

For the compound `OC[C@@H](O)[C@@H](O)CO` [Meso-erythritol], the “Evaluation Score CDM” value was 3 (Improvement in preventive value of 20 to less than 30).

`OC[C@@H](O)[C@@H](O)[C@H](O)[C@H](O)CO` [D-mannitol]: the “Evaluation Score CDM” value is on record as 1 (Improvement in preventive value of 1 to less than 10).

Consider `Nc1nc2c(ncn2[C@@H]2O[C@H](CO)[C@@H](O)[C@H]2O)c(=O)[nH]1` [Guanosine], for which the “Evaluation Score CDM” value is given as 0.

Staying with this experiment, now noted: in vivo.
Turning to `O=C(O)c1ccccc1` [Benzoic acid], the “Evaluation Score CDM” value amounted to 0.

With `O=C(O)CCCC(=O)O` [Glutaric acid], the “Evaluation Score CDM” value came to 0.

Take `Nc1nc2nc[nH]c2c(=O)[nH]1` [Guanine]: the “Evaluation Score CDM” value is on record as 0.

The next experiment deals with Rhizoctonia solani AGI-IA. Kind of experiment: Rice sheath blight (SB) control test. The experiment is classed as in vivo. The note with it: Table 9: monosaccharide 10% liquid preparation, no assistant, 10-fold dilution (monosaccharide 1%). On the procedure:
(SB: Sheath Blight) Test plants (rice variety: Sachikaze) were planted followed by cultivating until the third leaf appeared. In the test, dilutions (5 ml/pot) obtained by diluting with distilled water so that each formula reached a prescribed concentration were sprayed. After inoculating the seedlings one day after spraying with clumps of Rhizoctonia solani AGI-IA cultured for 14 days in oat medium, the seedlings were allowed to stand for about 24 hours in an inoculation room at a room temperature of 28° C. to promote the onset of disease. Disease development was investigated 14 days after inoculation, and the effects thereof were evaluated. Disease development was evaluated using the following indicators for disease control tests evaluated according to the methods described above. Furthermore, preventive values were calculated based on the disease development.
In the case of D-mannose, the “preventive value SB” value is given as “(60)”.

For the compound `O=C[C@@H](O)[C@@H](O)[C@@H](O)[C@H](O)CO` [D-talose], the “preventive value SB” value is “(30)”.

For the origin of these results see patent US9861099B2, “Composition for enhancing plant disease control effect of monosaccharide” (MITSUI CHEMICALS AGRO, INC., priority 2013, dated 2018).
